Data as given in ChEMBL document CHEMBL1139888, “Fungicidal activities of dihydroferulic acid alkyl ester analogues” (2007).

Legend:
Assay type in all cases: functional
Saccharomyces cerevisiae [1] = test: Antifungal activity against Saccharomyces cerevisiae slt2delta deletion mutant assessed as cell number at 3.2 mM after 48 hrs
Saccharomyces cerevisiae [2] = test: Growth inhibition of Saccharomyces cerevisiae slt2delta deletion mutant at 3.2 mM relative to control after 48 hrs
Saccharomyces cerevisiae [3] = test: Antifungal activity against Saccharomyces cerevisiae slt2delta deletion mutant assessed as cell number at 1.6 mM after 48 hrs
Saccharomyces cerevisiae [4] = test: Growth inhibition of Saccharomyces cerevisiae slt2delta deletion mutant at 1.6 mM relative to control after 48 hrs

How did the Activity (Saccharomyces cerevisiae [1]) turn out when `CCCOC(=O)CCc1ccc(O)c(OC)c1` [DIHYDROFERULIC ACID PROPYL ESTER] was run?
The Activity was 0.43.

What about the inhibition at 3200 µM (Saccharomyces cerevisiae [2]) of the same compound?
The inhibition at 3200 µM was 90.7%.

And the Activity (Saccharomyces cerevisiae [3])?
Its Activity is 1.13.

What about the inhibition at 1600 µM (Saccharomyces cerevisiae [4]) of the same compound?
Its inhibition at 1600 µM is 75.5%.
